Reference: patent US20030144249A1, “Use of organophosphorous compounds for producing a medicament for treating infections” (priority 2000, published 2003)
pIC50: −log10 of the molar value. Structures can show the parent of a compound that is named as a salt. Where two headings read alike, the source gives them in different places.

How the values were obtained:
[1] = tested on: Avena fatua; assay: Herbicidal activity, soil, pre-emergence; type: in vivo
Method: (§1) Herbicidal activity is determined using standard methods.
(§2) Substances 1 to 8 listed on page 5 are again investigated.

[2] = tested on: Abutilon theophrasti; assay: Herbicidal activity, soil, pre-emergence; type: in vivo
Method: as §1, §2

[3] = tested on: Cyperus esculentus; assay: Herbicidal activity, soil, pre-emergence; type: in vivo
Method: as §1, §2

[4] = tested on: Xanthium strumarium; assay: Herbicidal activity, soil, pre-emergence; type: in vivo
Method: as §1, §2

[5] = tested on: Amaranthus retroflexus; assay: Herbicidal activity, soil, pre-emergence; type: in vivo
Method: as §1, §2

[6] = tested on: Alopecurus myosuroides; assay: Herbicidal activity, soil, pre-emergence; type: in vivo
Method: as §1, §2

[7] = tested on: Setaria viridis; assay: Herbicidal activity, soil, pre-emergence; type: in vivo
Method: as §1, §2

[8] = tested on: Beta vulgaris; assay: Herbicidal activity, soil, pre-emergence; type: in vivo
Method: as §1, §2

[9] = tested on: Galium aperine; assay: Herbicidal activity, soil, pre-emergence; type: in vivo
Method: as §1, §2

[10] = tested on: Sinapis arvensis; assay: Herbicidal activity, soil, pre-emergence; type: in vivo; settings: Mutarda arvensis
Method: as §1, §2

[11] = tested on: Zea mays; assay: Herbicidal activity, soil, pre-emergence; type: in vivo
Method: as §1, §2

[12] = tested on: Avena fatua; assay: Herbicidal activity, soil, post-emergence; type: in vivo
Method: as §1, §2

[13] = tested on: Abutilon theophrasti; assay: Herbicidal activity, soil, post-emergence; type: in vivo
Method: as §1, §2

[14] = tested on: Cyperus esculentus; assay: Herbicidal activity, soil, post-emergence; type: in vivo
Method: as §1, §2

[15] = tested on: Xanthium strumarium; assay: Herbicidal activity, soil, post-emergence; type: in vivo
Method: as §1, §2

[16] = tested on: Amaranthus retroflexus; assay: Herbicidal activity, soil, post-emergence; type: in vivo
Method: as §1, §2

[17] = tested on: Alopecurus myosuroides; assay: Herbicidal activity, soil, post-emergence; type: in vivo
Method: as §1, §2

[18] = tested on: Setaria viridis; assay: Herbicidal activity, soil, post-emergence; type: in vivo
Method: as §1, §2

[19] = tested on: Beta vulgaris; assay: Herbicidal activity, soil, post-emergence; type: in vivo
Method: as §1, §2

[20] = tested on: Galium aperine; assay: Herbicidal activity, soil, post-emergence; type: in vivo
Method: as §1, §2

[21] = tested on: Sinapis arvensis; assay: Herbicidal activity, soil, post-emergence; type: in vivo; settings: Mutarda arvensis
Method: as §1, §2

[22] = tested on: Zea mays; assay: Herbicidal activity, soil, post-emergence; type: in vivo
Method: as §1, §2

[23] = tested on: Echinochloa; assay: Herbicidal activity, water, pre-emergence; type: in vivo
Method: as §1, §2

[24] = tested on: Lepidium; assay: Herbicidal activity, water, pre-emergence; type: in vivo
Method: as §1, §2

[25] = tested on: Solanum; assay: Herbicidal activity, water, pre-emergence; type: in vivo
Method: as §1, §2

[26] = tested on: Rice; assay: Herbicidal activity, water, pre-emergence; type: in vivo; settings: Oryza sativa
Method: as §1, §2

[27] = tested on: Plasmodium falciparum; assay: Antimalarial activity, in vitro culture, [3H]-hypoxanthine incorporation; type: cell-based; settings: 72 h, asynchronous culture, 48 h + 24 h with [3H]-hypoxanthine, read-out: IC50 (nM) of malaria culture (Plasmodium falciparum)
Method: The antimalarial activity of substances 1 to 8 (see page 5) was determined using in vitro cultures of the causative organism of malaria, Plasmodium falciparum. 200 μl of an asynchronous Plasmodium falciparum culture with a 0.4% blood parasite content and a heamatocrit of 2% were loaded into each of the wells of a 96 well microtitre plate. A serial dilution series of the compounds was then prepared in steps of three between concentrations of 100 and 0.14 μmol l^−1. The plates were incubated at 37° C., 3% CO2 and 5% O2 over a period of 48 hours. 30 μl of medium supplemented with 27 μCi ml^−1 of [^3H]-hypoxanthine were then added to each well. After 24 hours' incubation, the parasites were harvested by filtration through glass fibre filters and the incorporated radioactivity was measured. Inhibition of parasite growth was measured as the percentage inhibition of tritium incorporation. Inhibition of parasite growth was expressed as the percentage inhibition of tritium incorporation relative to a comparison without the substance. The median inhibitory concentration (IC50) of the substance was determined by extrapolating the values.

[28] = target: T1, DOXP reductoisomerase from Helicobacter pylori (Helicobacter pylori, UniProt P56139); assay: DOXP reductoisomerase inhibition (NADPH oxidation at 365 nm); type: biochemical
T1 construct: made in house; host or cells: Helicobacter pylori (so in the source)
T1 sequence (P56139 1-368): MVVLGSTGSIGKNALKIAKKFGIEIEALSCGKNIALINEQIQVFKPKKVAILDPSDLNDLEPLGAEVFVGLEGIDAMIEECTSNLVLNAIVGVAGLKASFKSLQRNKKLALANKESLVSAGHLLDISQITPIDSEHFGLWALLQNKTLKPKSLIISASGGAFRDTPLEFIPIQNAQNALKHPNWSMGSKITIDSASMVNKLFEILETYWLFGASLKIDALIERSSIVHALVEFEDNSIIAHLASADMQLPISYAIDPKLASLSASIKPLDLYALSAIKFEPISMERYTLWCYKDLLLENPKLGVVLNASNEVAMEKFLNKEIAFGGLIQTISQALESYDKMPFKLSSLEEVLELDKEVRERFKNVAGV
Method: The DOXP reductoisomerase of Helicobacter pylori was expressed as a recombinant protein in Helicobacter pylori. The activity of DOXP reductoisomerase was determined in a batch containing 100 mM tris-HCl (pH=7.5), 1 mM MnCl2, 0.3 mM NADPH and 1 mM DOXP.
The oxidation of NADPH was here measured at 365 nm in a spectrophotometer. The inhibition studies were performed by measuring the activity of DOXP reductoisomerase in the presence of compounds 1 to 8 (see page 5) at various concentrations between 0. 1 and 100 μmol l^−1.

[29] = Soil, pre-emergence, 500 gram/hectare
[30] = Soil, post-emergence, 500 gram/hectare
[31] = read-out: Herbicidal activity, Avena fatua
[32] = read-out: Herbicidal activity, Abutilon theophrasti
[33] = read-out: Herbicidal activity, Cyperus esculentus
[34] = read-out: Herbicidal activity, Xanthium strumarium
[35] = read-out: Herbicidal activity, Amaranthus retroflexus
[36] = read-out: Herbicidal activity, Alopecurus myosuroides
[37] = read-out: Herbicidal activity, Setaria viridis
[38] = read-out: Herbicidal activity, Beta vulgaris
[39] = read-out: Herbicidal activity, Galium aperine
[40] = read-out: Herbicidal activity, Sinapis arvensis
[41] = read-out: Herbicidal activity, Zea mays

**Q.** What does the source list for `CCCC(=O)N(O)C(C)N(C)CC(O)P(C)(C)=O` (stereo not shown) [Compound 1]?
**A.** pest or weed control at 500 g/ha [1, 29]: 0%; pest or weed control at 500 g/ha [2, 29]: 0%; pest or weed control at 500 g/ha [3, 29]: 0%; pest or weed control at 500 g/ha [4, 29]: 0%; pest or weed control at 500 g/ha [5, 29]: 0%; pest or weed control at 500 g/ha [6, 29]: 40%; pest or weed control at 500 g/ha [7, 29]: 0%; plant injury at 500 g/ha [8, 29]: 30%; pest or weed control at 500 g/ha [9, 29]: 0%; pest or weed control at 500 g/ha [10, 29]: 40%; plant injury at 500 g/ha [11, 29]: 0%; pest or weed control at 500 g/ha [12, 30]: 50%; pest or weed control at 500 g/ha [13, 30]: 40%; pest or weed control at 500 g/ha [14, 30]: 0%; pest or weed control at 500 g/ha [15, 30]: 60%; pest or weed control at 500 g/ha [16, 30]: 0%; pest or weed control at 500 g/ha [17, 30]: 60%; pest or weed control at 500 g/ha [18, 30]: 95%; plant injury at 500 g/ha [19, 30]: 50%; pest or weed control at 500 g/ha [20, 30]: 60%; pest or weed control at 500 g/ha [21, 30]: 95%; plant injury at 500 g/ha [22, 30]: 80%; pest or weed control at 1000 g/ha ([23]; Water, 1000 gram/hectare): 70%; pest or weed control at 1000 g/ha ([24]; Water, 1000 gram/hectare): 50%; pest or weed control at 1000 g/ha ([25]; Water, 1000 gram/hectare): 0%; plant injury at 1000 g/ha ([26]; Water, 1000 gram/hectare): 40%; IC50 [27]: 580 nM; IC50 ([28]; recombinant enzyme, 0.3 mM NADPH, 1 mM DOXP, pH 7.5, read-out: IC50 (nM) of DOXP reductoisomerase from Helicobacter pylori): 80 nM

**Q.** Which results are given for `CN(CN(O)C(=O)C1CCCCC1)CP(C)(=O)O` [Compound 3, N-((N-Cyclohexanoyl-N-hydroxy)aminomethyl)-N-methyl(aminomethylphosphinic acid, sodium salt]?
**A.** pest or weed control at 2000 g/ha [1, 31]: 0%; pest or weed control at 2000 g/ha [2, 32]: 0%; pest or weed control at 2000 g/ha [3, 33]: 0%; pest or weed control at 2000 g/ha [4, 34]: 0%; pest or weed control at 2000 g/ha [5, 35]: 0%; pest or weed control at 2000 g/ha [6, 36]: 30%; pest or weed control at 2000 g/ha [7, 37]: 0%; plant injury at 2000 g/ha [8, 38]: 30%; pest or weed control at 2000 g/ha [9, 39]: 0%; pest or weed control at 2000 g/ha [10, 40]: 30%; plant injury at 2000 g/ha [11, 41]: 0%; pest or weed control at 2000 g/ha [12, 31]: 70%; pest or weed control at 2000 g/ha [13, 32]: 60%; pest or weed control at 2000 g/ha [14, 33]: 0%; pest or weed control at 2000 g/ha [15, 34]: 60%; pest or weed control at 2000 g/ha [16, 35]: 60%; pest or weed control at 2000 g/ha [17, 36]: 60%; pest or weed control at 2000 g/ha [18, 37]: 70%; plant injury at 2000 g/ha [19, 38]: 60%; pest or weed control at 2000 g/ha [20, 39]: 60%; pest or weed control at 2000 g/ha [21, 40]: 80%; plant injury at 2000 g/ha [22, 41]: 70%; pest or weed control at 4000 g/ha ([23]; read-out: Herbicidal activity, Echinochloa): 50%; pest or weed control at 4000 g/ha ([24]; read-out: Herbicidal activity, Lepidium): 50%; pest or weed control at 4000 g/ha ([25]; read-out: Herbicidal activity, Solanum): 0%; plant injury at 4000 g/ha ([26]; read-out: Herbicidal activity, Rice): 40%; pIC50 [28]: 6.77
